Where “and” joins values, the source holds several entries; their conditions need not be identical. Equal entries are not always repeated.
What was measured:
P. falciparum = experiment: Study 2: phase 2 randomized controlled trial, efficacy in teenagers with uncomplicated falciparum malaria; assay type: in vivo, Plasmodium falciparum; details: for Median PRR (parasite reduction ratio: parasitemia at baseline/parasitemia at 72 h): N=8, at 72 h
Excerpt: The study was designed to enroll up to 180 participants. A randomized, controlled, age de-escalating trial design was applied in Study 2 to assess SAR97276A as a 3-day regimen administered IM to underage malaria patients. […] The study was planned to be conducted first in teenagers (age 12–17 years) and then in children (age 2–11 years).
Study 2 only enrolled uncomplicated malaria patients with P. falciparum ≥2000 parasites/µL. Two age groups were planned: Teenager aged 12–17 years and children aged 2–11 years. SAR97276A was planned to be administered only by IM injection.
Study duration and follow-up In both studies, study duration was 28 days for each patient including a screening period of up to 12 h before inclusion into the study. Participants were hospitalized for at least 3 days (72 h) after the start of treatment. Follow-up visits were done on day 6, 8, 14 ± 2, 21 ± 2, 28 ± 2 (Study 1); and day 7, 14 ± 2, 21 ± 2, 28 ± 2 (Study 2). Patient examination Fever measurements and thick blood smears were done every 6 h until 72 h and at each follow-up visit. Parasitemia was determined microscopically by Giemsa stained thick blood smear by two trained microscopists blinded to each other. […] Laboratory tests including hematology, biochemistry and urine analysis were done at baseline, day 2, 4, 28 (Study 1), or baseline, day 2, 4, 14, 28 (Study 2); vital signs were recorded at baseline, every 6 h until 72 h and on each follow up visit. An electrocardiogram (ECG) was done at baseline, day 4, 28 (Study 1), or baseline, 48 h, 72 h, day 28 (Study 2). For Study 2 respiratory parameters (respiratory rate, peak flow, efficiency of cough) were also checked at baseline and 30 min after first dose on day 1, 2 and 3.
Primary endpoint consisted of two criteria: (1) parasite clearance at 72 h analyzed by thick blood smear and (2) measurement of parasite reduction ratio (PRR: parasitemia at baseline/parasitemia at 72 h).
Sample size was calculated based on the parasite reduction ratio (PRR). Details are described in the supplementary information (see Additional file 4). PRR was calculated by: parasitemia at baseline/parasitemia at 72 h. For patients who prematurely discontinued study treatment the parasitemia at 72 h was replaced by last measurement of parasitemia or last measurement before rescue therapy for calculation of PRR at 72 h.
Parasite clearance time (PCT), PC50 and PC90 were calculated by Kaplan–Meier method. Interim analysis was to be performed following completion of each cohort.
Study 2: The patients were monitored up to day 28. […] The current available recommended rescue therapy as recommended by local guidelines was given. Treatment failures were described as early and late treatment failures.
Late treatment failure was defined as development of severe malaria after day 3 after first study drug administration in presence of parasitemia, and /or parasitemia on day 4 - 14 with axillary temperature ≥ 37.5°C, and /or any additional antimalarial therapy not specified in the study protocol.

[1] = Study 2: safety assessment (TEAEs, ECG, respiratory parameters); assay type: in vivo, human; details: for QTc interval - change from baseline Borderline: Incr. from B 30-60 ms / QTc interval - change from baseline Prolonged: Incr. from B > 60 ms / QTc interval Borderline: 431-450 ms (Boys); 451-470 ms (Girls) / QTc interval Prolonged: > 450 ms (Boys); > 470 ms (Girls) / QTc interval ≥ 500 ms: TEAE period
Protocol: Study duration and follow-up In both studies, study duration was 28 days for each patient including a screening period of up to 12 h before inclusion into the study. Participants were hospitalized for at least 3 days (72 h) after the start of treatment. Follow-up visits were done on day 6, 8, 14 ± 2, 21 ± 2, 28 ± 2 (Study 1); and day 7, 14 ± 2, 21 ± 2, 28 ± 2 (Study 2). Patient examination Fever measurements and thick blood smears were done every 6 h until 72 h and at each follow-up visit. Parasitemia was determined microscopically by Giemsa stained thick blood smear by two trained microscopists blinded to each other. Safety assessment Safety analysis was based on AEs including vision assessment recorded from baseline until day 28 (in binocular conditions, for near and distant visual acuity, using standard optotypes appropriate for patient’s age and reading ability. Tests with standard corrective glasses (+3 and −3 diopters) were performed in case of visual adverse events, to assess whether vision improved or worsened with corrective glasses). Laboratory tests including hematology, biochemistry and urine analysis were done at baseline, day 2, 4, 28 (Study 1), or baseline, day 2, 4, 14, 28 (Study 2); vital signs were recorded at baseline, every 6 h until 72 h and on each follow up visit. An electrocardiogram (ECG) was done at baseline, day 4, 28 (Study 1), or baseline, 48 h, 72 h, day 28 (Study 2). For Study 2 respiratory parameters (respiratory rate, peak flow, efficiency of cough) were also checked at baseline and 30 min after first dose on day 1, 2 and 3.
Treatment emergent adverse events (TEAEs) were defined as AEs that developed or worsened during the treatment period until day 6 following the end of study treatment.

[2] = ref unpublished data owned by Sanofi, cited from earlier work
[3] = Group 2A: 3 days IM once daily 0.5 mg/kg, N=8
[4] = Group 2B: 3 days IM twice daily 0.25 mg/kg, N=8
[5] = Group 2A: 3 days IM once daily 0.5 mg/kg, teenagers, N=8
[6] = Group 2A: 3 days IM once daily 0.5 mg/kg, teenagers, N=8, baseline 205
[7] = Group 2A: 3 days IM once daily 0.5 mg/kg, teenagers
[8] = Group 2B: 3 days IM twice daily 0.25 mg/kg, teenagers, N=8
[9] = Group 2B: 3 days IM twice daily 0.25 mg/kg, teenagers, N=8, baseline 185
[10] = Group 2B: 3 days IM twice daily 0.25 mg/kg, teenagers
[11] = after single IM administration of 36 mg, phase 1

SMILES: Cc1c(CCO)sc[n+]1CCCCCCCCCCCC[n+]1csc(CCO)c1C [SAR97276A]
- Early treatment failures (P. falciparum; [3]): 4
- Late treatment failures (P. falciparum; [3]): 3
- Patients classified as treatment failures (P. falciparum; [3]): 7/8
- Patients who received rescue treatment during the trial (P. falciparum; [3]): 8/8
- Median PRR (parasite reduction ratio: parasitemia at baseline/parasitemia at 72 h) (P. falciparum; Group 2A: 3 days IM once daily 0.5 mg/kg): 22.5 (0.4–6280.0)
- Parasitemia between 6 and 12 h after the start of treatment (P. falciparum; Group 2A: 3 days IM once daily 0.5 mg/kg, not seen in the other groups): Increase of parasitemia
- Early treatment failures (P. falciparum; [4]): 4
- Late treatment failures (P. falciparum; [4]): 1
- Patients classified as treatment failures (P. falciparum; [4]): 5/8
- Patients who received rescue treatment during the trial (P. falciparum; Group 2B: 3 days IM twice daily 0.25 mg/kg, N=8, 0.25 mg/kg): 5 out of 8 and 5/8
- Median PRR (parasite reduction ratio: parasitemia at baseline/parasitemia at 72 h) (P. falciparum; Group 2B: 3 days IM twice daily 0.25 mg/kg): 12.0 (0.3–83.1)
- Patients with TEAE leading to treatment discontinuation [1, 5]: 2 (25%)
- Patients with any TEAE [1, 5]: 8 (100%)
- Patients with any serious AE [1, 5]: 4 (50%)
- TEAE: Decreased appetite [1, 5]: 0
- TEAE: Gastrointestinal disorders [1, 5]: 4 (50%)
- TEAE: Headache [1, 5]: 0
- TEAE: Hepatitis B [1, 5]: 1 (13%)
- TEAE: Jaundice [1, 5]: 1 (13%)
- TEAE: Lacrimation increased [1, 5]: 1 (13%)
- TEAE: Malaria [1, 5]: 7 (88%)
- TEAE: Neutropenia [1, 5]: 0
- TEAE: Pyrexia [1, 5]: 0
- TEAE: Vertigo [1, 5]: 1 (12.5%)
- TEAE: Vision blurred [1, 5]: 1 (13%)
- Peakflow, change from baseline on D1 0.30 h [1, 6]: -15.0 median L/min
- Peakflow, change from baseline on D2 24.30 h [1, 6]: 4.0 median L/min
- Peakflow, change from baseline on D23 48.30 h [1, 6]: 45.0 median L/min
- QTc interval - change from baseline Borderline: Incr. from B 30-60 ms [1, 7]: 2/8
- QTc interval - change from baseline Prolonged: Incr. from B > 60 ms [1, 7]: 0/8
- QTc interval Borderline: 431-450 ms (Boys); 451-470 ms (Girls) [1, 7]: 3/8
- QTc interval Prolonged: > 450 ms (Boys); > 470 ms (Girls) [1, 7]: 0/8
- QTc interval ≥ 500 ms [1, 7]: 0/8
- Patients with TEAE leading to treatment discontinuation [1, 8]: 2 (25%)
- Patients with any TEAE [1, 8]: 5 (63%)
- Patients with any serious AE [1, 8]: 2 (25%)
- TEAE: Decreased appetite [1, 8]: 1 (13%)
- TEAE: Gastrointestinal disorders [1, 8]: 1 (13%)
- TEAE: Headache [1, 8]: 0
- TEAE: Jaundice [1, 8]: 0
- TEAE: Lacrimation increased [1, 8]: 0
- TEAE: Malaria [1, 8]: 4 (50%)
- TEAE: Neutropenia [1, 8]: 2 (25%)
- TEAE: Pyrexia [1, 8]: 0
- TEAE: Vertigo [1, 8]: 0
- TEAE: Vision blurred [1, 8]: 0
- Peakflow, change from baseline on D1 0.30 h [1, 9]: 2.5 median L/min
- Peakflow, change from baseline on D2 24.30 h [1, 9]: 5.0 median L/min
- Peakflow, change from baseline on D23 48.30 h [1, 9]: -10.0 median L/min
- QTc interval - change from baseline Borderline: Incr. from B 30-60 ms [1, 10]: 0/8
- QTc interval - change from baseline Prolonged: Incr. from B > 60 ms [1, 10]: 0/8
- QTc interval Borderline: 431-450 ms (Boys); 451-470 ms (Girls) [1, 10]: 2/8
- QTc interval Prolonged: > 450 ms (Boys); > 470 ms (Girls) [1, 10]: 2/8
- QTc interval ≥ 500 ms [1, 10]: 0/8
- Overall safety profile ([1]; Study 2): good
- Patients with a TEAE who discontinued study treatment and received rescue treatment, total ([1]; Study 2): Four
- Respiratory parameters: untoward effect ([1]; Study 2): no indication for an untoward effect
- SAEs: relation to study treatment ([1]; Study 2): not related
- Patients who had a SAE, total ([1]; Study 2, all in the SAR97276A treatment groups): 6
- Neutrophil count in the two patients with neutropenia who discontinued treatment ([1]; Study 2, day 2, returned to normal values at 72 h after treatment start): 0.99 giga/L and 0.91 giga/L
- Patients with a SAE with persistence of uncomplicated malaria ([1]; Study 2, of six SAE patients): five
- Terminal half-life in plasma [2, 11]: 5.5 h
- Terminal half-life in whole blood [2, 11]: 73 h
- Participants with an AE of severe intensity (ophthalmologic problems, temporary decrease in visual acuity), considered drug related ([2]; multiple administrations of 18 mg twice daily IM, phase 1): one
- Participants with AEs of severe intensity (severe abdominal spasm) ([2]; multiple doses of 12.8 mg IV, phase 1): two
- Highest tolerated dose for twice daily IM administration for 3 days ([2]; phase 1): 18 mg
- Tolerability in three phase 1 clinical trials ([2]; single doses 0.2–12.8 mg IV, 3.2–36 mg IM): well tolerated
